US7799813B2, “Salts of substituted 5-membered azacycle and use thereof in the treatment of diseases related to protein aging” (Beijing Molecule Science and Technology Co., Ltd., priority 2006, dated 2010)

Key:
[1] = system: AGE-BSA-collagen cross-links; assay: Elisa screening experiment on the breaking of AGE-BSA collagen cross-links; assay type: biochemical, rat; conditions: 37° C., 16 hours, OD 450 nm, averages of more than three screening results
Protocol: AGE cross-links were prepared in vitro by cross-linking AGE-BSA to rat tail tendon collagen-coated 96 well microtiter plates. ELISA method was used to evaluate the breaking effect of the compounds on AGE cross-links.
Normal Wister rats (body weight 200±20 g) were sacrificed acutely, then the tails were excised, and tail collagen was prepared at a temperature of 4° C. as follows: tail tendon collagen fibrils were taken out, washed with physiological saline, peeled off non-collagen fibril tissue, rinsed with distilled deionized water 3 times, cut into pieces, and immersed in 0.1% acetic acid at 4° C. for one week during which the immersion liquid was shaken frequently. Finally, the immersion liquid was subjected to a centrifuge treatment at 8000 G for 30 minutes, and supernatant collagen solution was collected. After dilution, protein content was measured. 96 well microtiter plates (Costar) were full-well coated with the collagen solution in an amount of 70 μg/well at 4° C. for 24 hours, then the coating solution was discarded. The plates were dried in air under sterile condition, coated with a fresh-keeping film, and finally stored at 4° C. for use.
A solution containing 50 mg/ml of bovine serum albumin BAS (V) (Roch) and 0.5M of glucose in 0.2M PBS (pH 7.4) was incubated at 37° C. under sterile condition for 3-4 months, to thereby form glycosylated BSA, i.e. BSA-AGE. At the same time, non-glycosylated BSA was prepared with glucose-free BSA. Then the BSA-AGE solution was dialyzed against 0.01M PBS (pH 7.4) to be removed of unreacted glucose. Fluorescence scanning (Exi/Em (395/460 nm)) and SDS-PAGE were used to check the formation of BSA-AGE, and protein concentration was determined by the Lowery method.
The tail collagen-coated 96 well microtiter plates were full-well treated with PBS (pH 7.4) for 1 hour to neutralize the acidic collagen. Then the plates were blocked with Superblock (PIERCE) at 37° C. for 1 hour, and washed with PBST (PBS-Tween) three times while shaking for 1 minute for each time of washing. AGE-BSA was diluted in PBS to a concentration required to obtain maximum cross-linking. 100 μl of the AGE-BSA solution was added to wells in the rows labeled as A, B, C, and D of the 96 well plates, and BSA solution of the same concentration was added to wells in the rows labeled as E, F, G, and H. The first three wells in each row were filled with PBS for the reagent blank. The plates were incubated at 37° C. for 4 hours to allow the collagen crosslink, and washed with PBST four times while shaking for 1 minute for each time of washing. Test compounds were diluted in PBS of pH 7.4. A test compound was added to quadruplicate AGE-BSA cross-links wells and quadruplicate BSA wells in an amount of 100 μl/well. PBS was added in an amount of 100 μl/well in the same way as non-breaking contrast. The plates were incubated at 37° C. for 16 hours and washed four times with PBST while shaking for 1 minute for each time of washing. 80 μl/well of Rabbit-anti-BSA antibody (1:500) was added to the wells and the plates were incubated at 37° C. for 50 minutes. After the plates were washed with PBST four times while shaking for 1 minute for each time of washing, 80 μl/well of horseradish peroxidase-labelled-goat-anti-rabbit IgG (1:1000) was added to the wells. The plates were incubated at 37° C. for 50 minutes, and then washed with PBST three times while shaking for 1 minute for each time of washing. 100 μl/well of TMB substrate (3,3′,5,5′-tetramethylbenzidine) was added to the wells. The plates were incubated at room temperature at dark place for 20 minutes. 2M H2SO4 was used to terminate the reaction. Within 10 minutes after the reaction, optical density was read at 450 nm on the BOBRAD Model 550 plate reader with the blank wells of the plates was set to 0.
The average optical density (OD) was calculated for each quadruplicate determination. […]

Row | Structure (SMILES) | melting point [°C] | Breaking rate (decrease % in OD) ([1]; test compound 0.1 mmol/L) [%] | Breaking rate (decrease % in OD) ([1]; test compound 1 mmol/L) [%]
1 | Cc1csc[n+]1CC(=O)OCc1ccccc1.[Br-] [Compound 3, 3-benzyloxycarbonylmethyl-4-methyl-thiazole-3-bromide] | 217 to 218 | 16.16 ± 7.07 | 26.46 ± 18.2
2 | Cc1c(CCO)sc[n+]1CC(=O)OCc1ccccc1.[Br-] [Compound 2, 3-benzyloxycarbonylmethyl-5-(2-hydroxyethyl)-4-methyl-thiazole-3-bromide] |  | 13.5 ± 9.53 | 13.25 ± 10.29
3 | Cc1sc[n+](CC(=O)OCc2ccccc2)c1C.[Br-] [Compound 1, 3-benzyloxycarbonylmethyl-4,5-dimethyl-thiazole-3-bromide] |  | 9.65 ± 3.55 | 10.81 ± 3.86
4 | Cc1sc[n+](CC(=O)c2ccccc2)c1C.[Cl-] [ALT-711, reference compound] |  | 13.4 ± 6.41 | 15.2 ± 8.43

Further lines, with some results ahead:

Row | melting point [°C] | Structure (SMILES) | Breaking rate (decrease % in OD) ([1]; test compound 0.1 mmol/L) [%] | Breaking rate (decrease % in OD) ([1]; test compound 1 mmol/L) [%]
5 | 223 to 230 | Cc1csc[n+]1CC(=O)O.[Br-] [Compound 5, 3-carboxymethyl-4-methyl-thiazole-3-bromide] |  | 
6 | 160 to 166 | O=C(C[n+]1csc2c1CCCC2)OCc1ccccc1.[Br-] [Compound 4, 3-benzyloxycarbonylmethyl-4,5,6,7-tetrahydro-benzothiazole-3-bromide] | 8.45 ± 5.35 | 7.17 ± 2.40
